The values that follow come from US10004701B2, “Methods and compositions for treating infection” (UNIVERSITY OF ROCHESTER, priority 2012, dated 2018).

Where a name gives a salt, the structure may show the parent alone. Read-outs that look alike come from different tables or passages of the source.

Common to all, as to assay: AK assay 384-well format, Prestwick library screening
Assay [1] deals with A. baumannii strain 98-37-09. The assay is classed as cell-based, Acinetobacter baumannii. The settings on record: for fold induction at 50 µM: Acinetobacter baumannii, 983709, 3 h.
The next assay relates to E. cloacae. The assay is classed as cell-based, Enterobacter cloacae. The settings on record: for fold induction at 50 µM: Enterobacter cloacae, 3 h.
In the next assay the test system is E. coli. The assay is classed as cell-based, Escherichia coli. The note with it: 50 μM final drug concentration; for fold induction at 50 µM: Escherichia coli, 3 h.
In the next assay the test system is P. aeruginosa. The assay is classed as cell-based, Pseudomonas aeruginosa. The settings on record: for fold induction at 50 µM: Pseudomonas aeruginosa, 3 h.
A further assay concerns E. faecium. The assay is classed as cell-based, Enterococcus faecium. The settings on record: for fold induction at 50 µM: Enterococcus faecium, 3 h.
Another assay concerns K. pneumoniae. The assay is classed as cell-based, Klebsiella pneumoniae. The note with it: for fold induction at 50 µM: Klebsiella pneumoniae, 3 h.
In assay [2] the test system is S. aureus strain USA300-0114. The assay is classed as cell-based, Staphylococcus aureus. The note with it: for fold induction at 50 µM: Staphylococcus aureus, USA300, 3 h.
The mark [3] stands for this setting: 50 μM final drug concentration, planktonic, cutoff for positive-scoring molecules 3-fold increase, read-out: AK-based Prestwick Library Screening Results, A. baumannii (fold increase in extracellular AK activity).
Where [4] appears, read: 50 μM final drug concentration, planktonic, cutoff for positive-scoring molecules 3-fold increase, read-out: AK-based Prestwick Library Screening Results, E. cloacae (fold increase in extracellular AK activity).
[5] abbreviates: planktonic, cutoff for positive-scoring molecules 3-fold increase, read-out: AK-based Prestwick Library Screening Results, E. coli (fold increase in extracellular AK activity).
Setting [6] is: 50 μM final drug concentration, planktonic, cutoff for positive-scoring molecules 3-fold increase, read-out: AK-based Prestwick Library Screening Results, P. aeruginosa (fold increase in extracellular AK activity).
Where [7] appears, read: 50 μM final drug concentration, planktonic, cutoff for positive-scoring molecules 3-fold increase, read-out: AK-based Prestwick Library Screening Results, E. faecium (fold increase in extracellular AK activity).
[8] abbreviates: 50 μM final drug concentration, planktonic, cutoff for positive-scoring molecules 3-fold increase, read-out: AK-based Prestwick Library Screening Results, K. pneumoniae (fold increase in extracellular AK activity).
The mark [9] stands for this setting: 50 μM final drug concentration, planktonic, cutoff for positive-scoring molecules 3-fold increase, read-out: AK-based Prestwick Library Screening Results, S. aureus (fold increase in extracellular AK activity).
The mark [10] stands for this setting: 50 μM final drug concentration, cutoff for positive-scoring molecules 3-fold increase, read-out: AK-based Prestwick Library Screening Results, A. baumannii (fold increase in extracellular AK activity).
Where [11] appears, read: 50 μM final drug concentration, cutoff for positive-scoring molecules 3-fold increase, read-out: AK-based Prestwick Library Screening Results, E. cloacae (fold increase in extracellular AK activity).
Where [12] appears, read: cutoff for positive-scoring molecules 3-fold increase, read-out: AK-based Prestwick Library Screening Results, E. coli (fold increase in extracellular AK activity).
Where [13] appears, read: 50 μM final drug concentration, cutoff for positive-scoring molecules 3-fold increase, read-out: AK-based Prestwick Library Screening Results, P. aeruginosa (fold increase in extracellular AK activity).
The mark [14] stands for this setting: 50 μM final drug concentration, cutoff for positive-scoring molecules 3-fold increase, read-out: AK-based Prestwick Library Screening Results, E. faecium (fold increase in extracellular AK activity).
The mark [15] stands for this setting: 50 μM final drug concentration, cutoff for positive-scoring molecules 3-fold increase, read-out: AK-based Prestwick Library Screening Results, K. pneumoniae (fold increase in extracellular AK activity).
[16] abbreviates: 50 μM final drug concentration, cutoff for positive-scoring molecules 3-fold increase, read-out: AK-based Prestwick Library Screening Results, S. aureus (fold increase in extracellular AK activity).
Setting [17] is: 50 μM final drug concentration, planktonic, cutoff for positive 3-fold increase.
The mark [18] stands for this setting: 50 μM final drug concentration, 384-well format, […].

In the case of `CC1(C)OC(=O)NC1=O` [Dimethadione], the fold induction at 50 µM in assay [1] (setting [3]) was 0.8; with E. cloacae (setting [4]) it was 1; in the assay on E. coli (setting [5]) it was 0.9; with P. aeruginosa (setting [6]), 0.8; in the assay on E. faecium (setting [7]), 0.9; in the assay with K. pneumoniae (setting [8]), 0.8. Further, the fold induction at 50 µM in assay [2] (setting [9]) stood at 0.7.
As for `NS(=O)(=O)c1cc(C(=O)O)cc(N2CCCC2)c1Oc1ccccc1` [Piretanide], the fold induction at 50 µM in assay [1] (setting [10]) came out at 0.4; with E. cloacae (setting [11]), 0.4; with E. coli (setting [12]), 0.5; in the assay with P. aeruginosa (setting [13]), 0.4; with E. faecium (setting [14]) it was 0.8; in the assay on K. pneumoniae (setting [15]) it was 0.5. In assay [2] (setting [16]), the fold induction at 50 µM stood at 0.4.
In the case of `Oc1cc(O)c2c(c1)O[C@H](c1ccc(O)c(O)c1)[C@H](O)C2` [Epicatechin-(−)], the “AK-based Prestwick Library Screening Results, A. baumannii (fold increase in extracellular AK activity)” value in assay [1] (setting [17]) is recorded as 0.3. For the same compound, in the assay on E. cloacae (setting [17]), the “AK-based Prestwick Library Screening Results, E. cloacae (fold increase in extracellular AK activity)” value was 0.3. For the same compound, the “AK-based Prestwick Library Screening Results, E. coli (fold increase in extracellular AK activity)” value in the assay with E. coli (planktonic, cutoff for positive 3-fold increase) is recorded as 0.4. Also, in the assay on P. aeruginosa (setting [17]), the “AK-based Prestwick Library Screening Results, P. aeruginosa (fold increase in extracellular AK activity)” value is listed as 0.3. Further, the “AK-based Prestwick Library Screening Results, E. faecium (fold increase in extracellular AK activity)” value in the assay with E. faecium (setting [17]) was found to be 0.9. Besides, the “AK-based Prestwick Library Screening Results, K. pneumoniae (fold increase in extracellular AK activity)” value with K. pneumoniae (setting [17]) amounted to 0.4. Besides, the “AK-based Prestwick Library Screening Results, S. aureus (fold increase in extracellular AK activity)” value in assay [2] (setting [17]) is 0.3.
Take `CN1CCc2cccc3c2[C@H]1Cc1ccc(O)c(O)c1-3.CN1CCc2cccc3c2[C@H]1Cc1ccc(O)c(O)c1-3.Cl.Cl.O`: the “AK-based Prestwick Library Screening Results, A. baumannii (increase in extracellular AK activity)” value in assay [1] (setting [18]) came to 0.8. The “AK-based Prestwick Library Screening Results, E. cloacae (increase in extracellular AK activity)” value in the assay on E. cloacae (setting [18]) worked out at 0.9. The “AK-based Prestwick Library Screening Results, E. coli (increase in extracellular AK activity)” value with E. coli (384-well format, […]) was found to be 0.8. Also, in the assay with P. aeruginosa (setting [18]), the “AK-based Prestwick Library Screening Results, P. aeruginosa (increase in extracellular AK activity)” value turned out to be 0.6. Further, in the assay on E. faecium (setting [18]), the “AK-based Prestwick Library Screening Results, E. faecium (increase in extracellular AK activity)” value is listed as 0.8. Moreover, the “AK-based Prestwick Library Screening Results, K. pneumoniae (increase in extracellular AK activity)” value in the assay with K. pneumoniae (setting [18]) stood at 0.8. In assay [2] (setting [18]), the “AK-based Prestwick Library Screening Results, S. aureus (increase in extracellular AK activity)” value worked out at 0.9.
As to `S=C(NC1CCCCC1)N1CCC(c2cnc[nH]2)CC1` [Thioperamide maleate], the fold induction at 50 µM was 1 in assay [1] (setting [10]); 1.6 in the assay with E. cloacae (setting [11]); 1.2 with E. coli ([…], read-out: AK-based Prestwick Library Screening Results, E. coli (fold increase in extracellular AK activity)); 1.3 in the assay on P. aeruginosa (setting [13]); 1 with E. faecium (setting [14]); 1 in the assay with K. pneumoniae (setting [15]). Moreover, the fold induction at 50 µM in assay [2] (setting [16]) was 1.1.
Take `Cc1ccnc(NS(=O)(=O)c2ccc(N)cc2)n1` [Sulfamerazine]: the fold induction at 50 µM in assay [1] (setting [10]) is 2.1; in the assay on E. cloacae (setting [11]), 1.9; in the assay with E. coli (setting [12]), 1.1; with P. aeruginosa (setting [13]), 1; in the assay on E. faecium (setting [14]) it was 1; in the assay with K. pneumoniae (setting [15]) it was 1. The fold induction at 50 µM in assay [2] (setting [16]) turned out to be 0.9.
`CC(C(=O)O)c1cccc(C(=O)c2ccccc2)c1` (centres unmarked) [Ketoprofen]: the fold induction at 50 µM in assay [1] (read-out: AK-based Prestwick Library Screening Results: A. baumannii (increase in extracellular AK activity)) turned out to be 1; in the assay on E. cloacae (read-out: AK-based Prestwick Library Screening Results: E. cloacae (increase in extracellular AK activity)) it was 1.5; in the assay on E. coli (planktonic E. coli, 384-well, […], read-out: AK-based Prestwick Library Screening Results: E. coli (increase in extracellular AK activity)), 1.1; in the assay with P. aeruginosa (read-out: AK-based Prestwick Library Screening Results: P. aeruginosa (increase in extracellular AK activity)), 1; in the assay on E. faecium (read-out: AK-based Prestwick Library Screening Results: E. faecium (increase in extracellular AK activity)) it was 0.9; with K. pneumoniae (read-out: AK-based Prestwick Library Screening Results: K. pneumoniae (increase in extracellular AK activity)), 1.1. Also, in assay [2] (read-out: AK-based Prestwick Library Screening Results: S. aureus (increase in extracellular AK activity)), the fold induction at 50 µM turned out to be 1.
As to `CCOc1ccc2ccccc2c1C(=O)N[C@@H]1C(=O)N2[C@@H]1SC(C)(C)[C@@H]2C(=O)O` [Nafcillin sodium salt monohydrate], the fold induction at 50 µM in assay [1] (setting [10]) was determined as 1.5; in the assay on E. cloacae (setting [11]) it was 1.4; in the assay on E. coli (setting [12]), 1.2; with P. aeruginosa (setting [13]), 1.3; with E. faecium (setting [14]), 1; in the assay on K. pneumoniae (setting [15]), 1. Further, the fold induction at 50 µM in assay [2] (setting [16]) was found to be 6.5.
Take Thioproperazine dimesylate: the “AK-based Prestwick Library Screening Results: A. baumannii (increase in extracellular AK activity)” value in assay [1] (planktonic A. baumannii, 50 μM final drug concentration, 384-well, cutoff for positive-scoring molecules 3-fold increase) is recorded as 1.7. The “AK-based Prestwick Library Screening Results: E. cloacae (increase in extracellular AK activity)” value in the assay with E. cloacae (planktonic E. cloacae, 50 μM final drug concentration, 384-well, cutoff for positive-scoring molecules 3-fold increase) is on record as 1.3. In the assay on E. coli (planktonic E. coli, 384-well, cutoff for positive-scoring molecules 3-fold increase), the “AK-based Prestwick Library Screening Results: E. coli (increase in extracellular AK activity)” value is recorded as 1.5. Also, in the assay on P. aeruginosa (planktonic P. aeruginosa, 50 μM final drug concentration, 384-well, cutoff for positive-scoring molecules 3-fold increase), the “AK-based Prestwick Library Screening Results: P. aeruginosa (increase in extracellular AK activity)” value is recorded as 1.1. Also, the “AK-based Prestwick Library Screening Results: E. faecium (increase in extracellular AK activity)” value with E. faecium (planktonic E. faecium, 50 μM final drug concentration, 384-well, cutoff for positive-scoring molecules 3-fold increase) worked out at 1.0. Also, the “AK-based Prestwick Library Screening Results: K. pneumoniae (increase in extracellular AK activity)” value in the assay with K. pneumoniae (planktonic K. pneumoniae, 50 μM final drug concentration, 384-well, cutoff for positive-scoring molecules 3-fold increase) was determined as 1.1. In assay [2] (planktonic S. aureus, 50 μM final drug concentration, 384-well, cutoff for positive-scoring molecules 3-fold increase), the “AK-based Prestwick Library Screening Results: S. aureus (increase in extracellular AK activity)” value came out at 1.0.
Take `COc1ccc2c3c1O[C@H]1C[C@@H](O)C=C[C@@]31CCN(C)C2` [Galanthamine hydrobromide]: the fold induction at 50 µM came to 0.8 in assay [1] (planktonic A. baumannii, 50 μM final drug concentration, […], read-out: AK-based Prestwick Library Screening Results, A. baumannii (increase in extracellular AK activity)); 1 in the assay with E. cloacae (planktonic E. cloacae, 50 μM final drug concentration, […], read-out: AK-based Prestwick Library Screening Results, E. cloacae (increase in extracellular AK activity)); 0.9 with E. coli (planktonic E. coli, […], read-out: AK-based Prestwick Library Screening Results, E. coli (increase in extracellular AK activity)); 0.8 in the assay with P. aeruginosa (planktonic P. aeruginosa, 50 μM final drug concentration, […], read-out: AK-based Prestwick Library Screening Results, P. aeruginosa (increase in extracellular AK activity)); 0.9 in the assay with E. faecium (planktonic E. faecium, 50 μM final drug concentration, […], read-out: AK-based Prestwick Library Screening Results, E. faecium (increase in extracellular AK activity)); 0.8 with K. pneumoniae (planktonic K. pneumoniae, 50 μM final drug concentration, […], read-out: AK-based Prestwick Library Screening Results, K. pneumoniae (increase in extracellular AK activity)). Besides, in assay [2] (planktonic S. aureus, 50 μM final drug concentration, […], read-out: AK-based Prestwick Library Screening Results, S. aureus (increase in extracellular AK activity)), the fold induction at 50 µM worked out at 0.8.
Take `COc1ccc(C(=O)c2ccccc2O)c(O)c1` [Dioxybenzone]: the fold induction at 50 µM is 0.6 in assay [1] (setting [3]); 1 with E. cloacae (setting [4]); 0.8 in the assay on E. coli (setting [5]); 0.7 with P. aeruginosa (setting [6]); 0.8 in the assay on E. faecium (setting [7]); 0.7 in the assay with K. pneumoniae (setting [8]). The fold induction at 50 µM in assay [2] (setting [9]) came to 0.5.
